Measured values published in patent publication US6670378B2, “Method of treating Parkinson's disease” (Pharmacia & Upjohn Company, priority 2001, dated 2003).

What was measured:
[1] = test system: 6-OH-dopamine lesioned rats; assay: L-DOPA induced behavioral sensitization (contralateral rotations) in unilaterally 6-OH-dopamine lesioned rats; assay type: in vivo, Male Sprague-Dawley rats
Procedure: Repeated administration of dopamine agonists to 6-OH-dopamine lesioned rats results in behavioral sensitization or enhanced rotational behavior in the rats. This effect is believed to mirror the development of motor complications including L-DOPA induced involuntary movements such as dyskinesias in Parkinson's Disease patients.
Male Sprague-Dawley rats having lesion surgery were provided. […] The rats were anesthetized with 60 mg/kg i.p. sodium pentobarbital and then placed in a stereotaxic apparatus. A small hole was drilled through the skull of the rats and a 30-gauge stainless tubing was lowered to the right (one study) or left (two studies) medial forebrain bundle. 8 μg/4 μL (8μ free base) of 6-OH-dopamine solution was injected into the medial forebrain bundle at a rate of 1 μL/min. Following surgery, the incision was closed with clips and ointment containing a local anesthetic/antibiotic was applied to the incision area. The rats were returned to their home cages and allowed one week to recover from surgery.
The rats were group housed in wire mesh hanging cages with free access to food and water and kept on 12-hour light:12-hour dark cycles with the light being on from 6:00 a.m. to 6:00 p.m. All behavioral testing was done between 9:00 a.m. to 6:00 p.m.
Two to three weeks after the surgery, the rats were screened to assess the degree of lesion by measuring their net turning response to a single dose of 0.1 mg/kg s.c. of apomorphine HCl in 0.9% saline. The total turns were recorded in discrete 10 minute intervals. Each rat was connected by a lightweight harness and tether to a rotometer comprising a swivel with a mechanical counter at the top of a clear plastic cylindrical cage. The rats were used for the experiments if they had at least 30 contralateral turns in 10 minutes, with contralateral being away from the side of the lesion. In addition to screening out incomplete lesions, the response to apomorphine was used to separate the rats into balanced treatment groups, prior to the start of chronic dosing. The rats were ranked by cumulative net turning response and an equal number of high and low responders were placed in each treatment group.
All of the injections were given in a volume of 2 ml/kg and, with the exception of L-DOPA+benserazide 15+5 mg/kg, i.p., all injections were subcutaneous. All chronic treatment was given bid, 6-8 hours apart. […] S-(−)-3-[3-(methylsulfonyl)phenyl]-1-propyl-piperidine was dissolved in 0.9% sterile saline and administered at either 10 or 30 mg/kg subcutaneously 20 minutes before L-DOPA or together with the L-DOPA. The basal turning measurement started immediately after the rats received the first injections on day 1 with the activity being measured for 4-6 hours after dosing. The turning activity was measured again on days 7 and 14 and compared to the activity on day 1. […] Analysis of variance was used for statistical calculations and probability levels of <0.05 was regarded as being statistically significant.

[2] = Plasma/blood levels of the piperidine derivative and its N-dealkylated metabolite after two weeks of chronic dosing (HPLC-MS/MS); assay type: in vivo, Male Sprague-Dawley rats; conditions: plasma one hour after evening dose
Procedure: In order to perform the brain monoamine neurochemistry analysis, the brains were harvested following 14 days of chronic drug treatment. This was performed by decapitating the rats one hour after the evening drug administration, collecting the trunk blood into EDTA-treated tubes, immediately removing the brains, freezing the brains in small aluminum pans on dry ice and then storing at −80° C. […] Blood was spun and plasma was frozen at −80° C. for analysis of S-(−)-3-[3-(methylsulfonyl) phenyl]-1-propyl-piperidine and its major N-dealkylated metabolite. Plasma concentrations of S-(−)-3-[3-(methylsulfonyl)phenyl]-1-propyl-piperidine and its despropyl metabolite were quantitated using on-line high performance liquid chromatography (HPLC) tandem mass spectroscopy (MS/MS) with an atmospheric pressure chemical ionization (APCI) interface. […] S-(−)-3-[3-(methylsulfonyl)phenyl]-1-propyl-piperidine (0.1 μg/mL, 25 μL) were quantitatively added to 100 μL of plasma sample. […] The linear range of the calibration curve calculated in plasma was 0.02 nmol/mL to 40 nmol/mL for S-(−)-3-[3-(methylsulfonyl) phenyl]-1-propyl-piperidine and 00.01 nmol/mL to 20 nmol/mL for its N-dealkylated metabolite. […] Product ions with m/z 173 were monitored following CID of the protonated stable isotope (m/z 286). […] Study sample concentrations were calculated by reference to this equation.

[3] = Post mortem brain (prefrontal cortex) levels of L-DOPA after 14 days of chronic treatment; conditions: L-DOPA alone vs L-DOPA combined with the piperidine derivative
Procedure: In order to perform the brain monoamine neurochemistry analysis, the brains were harvested following 14 days of chronic drug treatment. This was performed by decapitating the rats one hour after the evening drug administration, collecting the trunk blood into EDTA-treated tubes, immediately removing the brains, freezing the brains in small aluminum pans on dry ice and then storing at −80° C. Brain levels of L-DOPA and dopamine were analyzed by means of liquid chromatography and electrochemical detection according to standard methodology described in the literature.
After two weeks of the administering of the L-DOPA and benserazide, tissues were taken post-mortem from the unilateral striatum and prefrontal cortex and analyzed for monoamines and their metabolite levels.

[4] = test system: unilaterally dopamine-lesioned monkeys; conditions: cited from earlier work
[5] = test system: rotational behavior induced by apomorphine, L-DOPA and quinpirole; conditions: in vivo; cited from earlier work

SMILES | rotational behavior in animals with unilateral lesions of the nigro-striatal dopamine neurons ([1]; L-DOPA+benserazide 15+5 mg/kg i.p.) | behavioral sensitization, measured as enhanced number of contralateral rotations ([1]; L-DOPA+benserazide 15+5 mg/kg i.p. bid, two separate experiments) | effect of chronic treatment with L-DOPA on blood levels [2] | effect of co-treatment on brain levels of L-DOPA [3] | L-DOPA-induced contraversive turning behavior [4] | motor impairment such as akinesia or dystonia [5] | rotational behavior induced by apomorphine, L-DOPA and quinpirole [5] | behavioral sensitization induced by L-DOPA (enhanced number of contralateral rotations) ([1]; 10 or 30 mg/kg s.c. bid, 20 minutes before or together with L-DOPA+benserazide 15+5 mg/kg i.p., days 7 and 14 vs day 1) | antagonism of basal rotational response induced by L-DOPA ([1]; 10 or 30 mg/kg s.c. with L-DOPA+benserazide 15+5 mg/kg i.p., both experiments) | rotational behavior or akinesia induced by the compound by itself ([1]; compound alone, s.c.) | time course of antagonism of L-DOPA sensitization (simultaneous vs 20 minutes before L-DOPA) ([1]; given simultaneously with L-DOPA (FIG. 2) vs 20 minutes before (FIG. 1))
N[C@@H](Cc1ccc(O)c(O)c1)C(=O)O [L-DOPA, reference compound] | induces rotational behavior | repeatedly exhibited |  |  |  |  |  |  |  |  | 
CS(=O)(=O)c1cccc([C@@H]2CCCNC2)c1 [N-dealkylated metabolite] |  |  | did not significantly effect |  |  |  |  |  |  |  | 
CCCN1CCC[C@@H](c2cccc(S(C)(=O)=O)c2)C1 [S-(−)-3-[3-(methylsulfonyl)phenyl]-1-propyl-piperidine] |  |  | did not significantly effect | did not appear to effect the brain levels of L-DOPA | attenuating | without inducing motor impairment | attenuated | blocked by both doses | in neither experiment did the piperidine derivative antagonize the basal rotational response | did not induce rotational behavior or akinesia by itself | most optimal antagonism occurred when the piperidine derivative was given simultaneously with L-DOPA
